Test results from patent publication US12708630B2, “Combined therapy of 4′-thio-5-aza-2′-deoxycytidine and Venetoclax” (PINOTBIO, INC., priority 2021, dated 2026).

How the values were obtained:
Assay in all cases: drug activity profiling cytotoxicity
Assay type in all cases: cell-based
COR-L23 = conditions: Homo sapiens; COR-L23 cell line, Lung (NSCLC); read-out: Aza-T-dCyd IC50
Experimental: (§1) To obtain a biomarker for Aza-T-dCyd, drug activity profiling analysis was performed to evaluate the cytotoxicity of 200 cell lines.
(§2) The drug responsiveness analysis of Aza-T-dCyd through drug activity profiling and genomic analysis of 200 cell lines confirmed the potent efficacy of Aza-T-dCyd in various solid tumors (Table 2).

TF-1 = conditions: Homo sapiens; TF-1 cell line, Erythroleukemia; read-out: Aza-T-dCyd IC50
Experimental: as §1, §2

SCaBER = conditions: Homo sapiens; SCaBER cell line, Bladder; read-out: Aza-T-dCyd IC50
Experimental: as §1, §2

Calu6 = conditions: Homo sapiens, Calu-6; Calu6 cell line, Lung (NSCLC); read-out: Aza-T-dCyd IC50
Experimental: as §1, §2

H9 = conditions: Homo sapiens; H9 cell line, T-cell Lymphoma; read-out: Aza-T-dCyd IC50
Experimental: as §1, §2

NCI-H69 = conditions: Homo sapiens; NCI-H69 cell line, Lung (SCLC); read-out: Aza-T-dCyd IC50
Experimental: as §1, §2

NU-DUL-1 = conditions: Homo sapiens; NU-DUL-1 cell line, B-cell lymphoma; read-out: Aza-T-dCyd IC50
Experimental: as §1, §2

MES-SA = conditions: Homo sapiens; MES-SA cell line, Sarcoma; read-out: Aza-T-dCyd IC50
Experimental: as §1, §2

SKMES1 = conditions: Homo sapiens, SK-MES-1; SKMES1 cell line, Lung (NSCLC); read-out: Aza-T-dCyd IC50
Experimental: as §1, §2

SCC-4 = conditions: Homo sapiens; SCC-4 cell line, Head and Neck; read-out: Aza-T-dCyd IC50
Experimental: as §1, §2

DMS114 = conditions: Homo sapiens, DMS-114; DMS114 cell line, Lung (SCLC); read-out: Aza-T-dCyd IC50
Experimental: as §1, §2

Hs 852.T = Hs 852.T cell line, Skin (Melanoma); read-out: Aza-T-dCyd IC50
Experimental: as §1, §2

Caki-1 = conditions: Homo sapiens; Caki-1 cell line, Kidney; read-out: Aza-T-dCyd IC50
Experimental: as §1, §2

GA-10 = conditions: Homo sapiens; GA-10 cell line, Burkitt's lymphoma; read-out: Aza-T-dCyd IC50
Experimental: as §1, §2

PFSK-1 = conditions: Homo sapiens; PFSK-1 cell line, CNS (Glioma); read-out: Aza-T-dCyd IC50
Experimental: as §1, §2

WM-266-4 = conditions: Homo sapiens; WM-266-4 cell line, Skin (Melanoma); read-out: Aza-T-dCyd IC50
Experimental: as §1, §2

HCT-116 = conditions: Homo sapiens; HCT-116 cell line, Colon; read-out: Aza-T-dCyd IC50
Experimental: as §1, §2

BFTC-905 = conditions: Homo sapiens; BFTC-905 cell line, Bladder; read-out: Aza-T-dCyd IC50
Experimental: as §1, §2

JeKo-1 = conditions: Homo sapiens; JeKo-1 cell line, B-cell lymphoma; read-out: Aza-T-dCyd IC50
Experimental: as §1, §2

Hs 578T = conditions: Homo sapiens; Hs 578T cell line, Breast; read-out: Aza-T-dCyd IC50
Experimental: as §1, §2

HuCCT1 = conditions: Homo sapiens, HuCCT-1; HuCCT1 cell line, Liver; read-out: Aza-T-dCyd IC50
Experimental: as §1, §2

RPMI 8226 = conditions: Homo sapiens; RPMI 8226 cell line, B-cell myeloma; read-out: Aza-T-dCyd IC50
Experimental: as §1, §2

G-361 = conditions: Homo sapiens; G-361 cell line, Skin (Melanoma); read-out: Aza-T-dCyd IC50
Experimental: as §1, §2

Colo 205 = conditions: Homo sapiens; Colo 205 cell line, Colon; read-out: Aza-T-dCyd IC50
Experimental: as §1, §2

Cal 27 = conditions: Homo sapiens; Cal 27 cell line, Head and Neck; read-out: Aza-T-dCyd IC50
Experimental: as §1, §2

22Rv1 = conditions: Homo sapiens; 22Rv1 cell line, Prostate; read-out: Aza-T-dCyd IC50
Experimental: as §1, §2

MG-63 = conditions: Homo sapiens; MG-63 cell line, Bone (Osteosarcoma); read-out: Aza-T-dCyd IC50
Experimental: as §1, §2

HT-3 = conditions: Homo sapiens; HT-3 cell line, Female GU (Cervix); read-out: Aza-T-dCyd IC50
Experimental: as §1, §2

786-O = conditions: Homo sapiens, 786-0; 786-O cell line, Kidney; read-out: Aza-T-dCyd IC50
Experimental: as §1, §2

WiDr = conditions: Homo sapiens; WiDr cell line, Colon; read-out: Aza-T-dCyd IC50
Experimental: as §1, §2

ACHN = conditions: Homo sapiens; ACHN cell line, Kidney; read-out: Aza-T-dCyd IC50
Experimental: as §1, §2

Nc1ncn([C@H]2CC(O)[C@@H](CO)S2)c(=O)n1 (stereo partly shown) [Aza-T-dCyd, 4′-thio-5-aza-2′-deoxycytidine]
IC50 (COR-L23): 94.4 nM | IC50 (TF-1): 733 nM | IC50 (SCaBER): 187 nM | IC50 (Calu6): 289 nM | IC50 (H9): 468 nM | IC50 (NCI-H69): > 10000 nM | IC50 (NU-DUL-1): 24.5 nM | IC50 (MES-SA): 135 nM | IC50 (SKMES1): 314 nM | IC50 (SCC-4): 2860 nM | IC50 (DMS114): 2200 nM | IC50 (Hs 852.T): > 10000 nM | IC50 (Caki-1): 85.6 nM | IC50 (GA-10): 33.5 nM | IC50 (PFSK-1): 7610 nM | IC50 (WM-266-4): 429 nM | IC50 (HCT-116): 100 nM | IC50 (BFTC-905): 119 nM | IC50 (JeKo-1): 38.5 nM | IC50 (Hs 578T): > 10000 nM | IC50 (HuCCT1): 105 nM | IC50 (RPMI 8226): 3270 nM | IC50 (G-361): 1080 nM | IC50 (Colo 205): 81.1 nM | IC50 (Cal 27): 319 nM | IC50 (22Rv1): 2710 nM | IC50 (MG-63): 990 nM | IC50 (HT-3): 818 nM | IC50 (786-O): 249 nM | IC50 (WiDr): 263 nM | IC50 (ACHN): 231 nM
